Experimental data published in patent publication US8754075B2, “1,3-oxazines as BACE1 and/or BACE2 inhibitors” (Hoffmann-La Roche Inc., priority 2011, dated 2014).

Columns and labels:
[1] = target: BACE1 (Homo sapiens (Human), UniProt P56817); test: Cellular Aβ-lowering assay; type: cell-based; details: HEK293 cells stably expressing human APP wt (APP695); Aβ40 in supernatant by ELISA after 18-20 hrs
Description: Cellular Aβ-Lowering Assay: Human HEK293 cells which are stably transfected with a vector expressing a cDNA of the human APP wt gene (APP695) were used to assess the potency of the compounds in a cellular assay. The cells were seeded in 96-well microtiter plates in cell culture medium (Iscove, plus 10% (v/v) fetal bovine serum, glutamine, penicillin/streptomycin) to about 80% confluence and the compounds were added at a 10× concentration in 1/10 volume of medium without FCS containing 8% DMSO (final concentration of DMSO was kept at 0.8% v/v). After 18-20 hrs incubation at 37° C. and 5% CO2 in a humidified incubator the culture supernatant was harvested for the determination of Aβ40 concentrations. […] After blocking of non-specific binding sites with e.g. 1% BSA and washing, the culture supernatants were added in suitable dilutions together with a horseradish peroxidase-coupled Aβ detection antibody (e.g., antibody 4G8, Senetek, Maryland Heights, Mo.) and incubated for 5 to 7 hrs. Subsequently the wells of the microtiter plate were washed extensively with Tris-buffered saline containing 0.05% Tween 20 and the assay was developed with tetramethylbenzidine/H2O2 in citric acid buffer. After stopping the reaction with one volume […] the reaction was measured in an ELISA reader at 450 nm wavelength. The concentrations of Aβ in the culture supernatants were calculated from a standard curve obtained with known amounts of pure Aβ peptide.

[2] = target: BACE2 (Rattus norvegicus (Rat), UniProt Q6IE75); test: Assay for BACE inhibition by measuring cellular TMEM27 cleavage; type: cell-based; details: INS-TMEM27 (INS1e rat cell line, inducible hTMEM27); shed TMEM27 by ELISA
Sequence of BACE2 (Q6IE75 63-514): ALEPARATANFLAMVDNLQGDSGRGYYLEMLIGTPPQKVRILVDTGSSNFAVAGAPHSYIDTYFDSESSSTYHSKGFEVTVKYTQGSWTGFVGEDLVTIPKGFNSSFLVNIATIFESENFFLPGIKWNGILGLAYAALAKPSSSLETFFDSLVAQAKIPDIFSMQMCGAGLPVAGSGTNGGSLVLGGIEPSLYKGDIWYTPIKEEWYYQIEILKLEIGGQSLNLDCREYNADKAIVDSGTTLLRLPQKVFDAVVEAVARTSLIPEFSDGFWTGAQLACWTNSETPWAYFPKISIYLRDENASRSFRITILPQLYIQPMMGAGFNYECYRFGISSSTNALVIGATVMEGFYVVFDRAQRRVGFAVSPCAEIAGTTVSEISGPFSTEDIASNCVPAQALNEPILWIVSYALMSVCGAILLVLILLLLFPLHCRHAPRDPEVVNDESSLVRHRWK
From the text: Assay for BACE Inhibition by Measuring Cellular TMEM27 Cleavage:
The assay uses the principle of inhibition of human TMEM27 cleavage by endogenous cellular BACE2 in the Ins1e rat cell line and shedding from the cell surface into the culture medium, followed by detection in an ELISA assay Inhibition of BACE2 prevents the cleavage and shedding in a dose-dependent manner.
The stable cell line “INS-TMEM27” represents an INS1e-derived cell line with inducible expression (using the TetOn system) of full-length hTMEM27 in a doxycycline-dependent manner. The cells are cultured throughout the experiment in RPMI1640+Glutamax (Invitrogen) Penicillin/Streptomycin, 10% Fetal bovine serum, […], […], 100 micrograms/ml G418 and 100 microgram/ml hygromycin and are grown inadherent culture at 37° C. in a standard CO2 cell culture incubator.
INS-TMEM27 cells are seeded in 96-well plates. After 2 days in culture, BACE2 inhibitor is added in a range of concentrations as required by the assay and after a further two hours, doxycycline is added to a final concentration of 500 ng/ml. The cells are incubated for a further 46 hours and the supernatant harvested for detection of shed TMEM27.
An ELISA assay (using a pair of mouse anti-human-TMEM27 antibodies, raised against the extracellular domain of TMEM27) is used for detection of TMEM27 in the culture medium. An EC50 for BACE2 inhibition is calculated using the ELISA readout for each inhibitor concentration with standard curve-fitting software such as XLFit for the Excel spreadsheet program.

Sequence of BACE1 (P56817 46-501): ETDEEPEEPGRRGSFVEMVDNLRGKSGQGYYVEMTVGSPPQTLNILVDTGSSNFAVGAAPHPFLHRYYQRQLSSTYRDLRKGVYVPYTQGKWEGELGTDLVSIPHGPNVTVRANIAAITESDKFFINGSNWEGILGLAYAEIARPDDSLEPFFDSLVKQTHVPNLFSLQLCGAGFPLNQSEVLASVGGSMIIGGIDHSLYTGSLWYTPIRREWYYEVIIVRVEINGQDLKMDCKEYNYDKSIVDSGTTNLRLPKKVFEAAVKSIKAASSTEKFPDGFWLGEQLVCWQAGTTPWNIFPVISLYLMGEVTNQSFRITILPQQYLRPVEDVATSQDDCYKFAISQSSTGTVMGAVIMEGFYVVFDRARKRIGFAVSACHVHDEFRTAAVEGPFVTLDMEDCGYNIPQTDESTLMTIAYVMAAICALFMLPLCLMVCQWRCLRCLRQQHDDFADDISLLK

| Structure (SMILES) | IC50 [1] [nM] | IC50 [2] [nM] |
| --- | --- | --- |
| C[C@]1(c2cc(NC(=O)c3ncc(C#N)cc3Cl)ccc2F)N=C(N)OC[C@@H]1F [Example 7, 3-Chloro-5-cyano-pyridine-2-carboxylic acid [3-((4R,5R)-2-amino-5-fluoro-4-methyl-5,6-dihydro-4H-[1,3]oxazin-4-yl)-4-fluoro-phenyl]-amide] | 2 | 10 |
| C[C@]1(c2cc(NC(=O)c3ncc(Cl)cc3Cl)ccc2F)N=C(N)OC[C@@H]1F [Example 2, 3,5-Dichloro-pyridine-2-carboxylic acid [3-((4R,5R)-2-amino-5-fluoro-4-methyl-5,6-dihydro-4H-[1,3]oxazin-4-yl)-4-fluoro-phenyl]-amide] | 0.6 | 8 |
| C[C@]1(c2cc(NC(=O)c3ccc(Cl)cn3)ccc2F)N=C(N)OC[C@@H]1OCC(F)(F)F [Example 45, 5-Chloro-pyridine-2-carboxylic acid {3-[(4R,5R)-2-amino-4-methyl-5-(2,2,2-trifluoro-ethoxy)-5,6-dihydro-4H-[1,3]oxazin-4-yl]-4-fluoro-phenyl}-amide] | 1 | 61 |
| C[C@]1(c2cc(NC(=O)c3n[nH]cc3Cl)ccc2F)N=C(N)OC[C@@H]1F [Example 28, 4-Chloro-1H-pyrazole-3-carboxylic acid [3-((4R,5R)-2-amino-5-fluoro-4-methyl-5,6-dihydro-4H-[1,3]oxazin-4-yl)-4-fluoro-phenyl]-amide] | 130 | 35 |
| C[C@]1(c2cc(NC(=O)c3cnc(C(F)F)cn3)ccc2F)N=C(N)OC[C@@H]1F [Example 15, 5-Difluoromethyl-pyrazine-2-carboxylic acid [3-((4R,5R)-2-amino-5-fluoro-4-methyl-5,6-dihydro-4H-[1,3]oxazin-4-yl)-4-fluoro-phenyl]-amide] | 5 | 23 |
| Cc1cc(C(=O)Nc2ccc(F)c([C@@]3(C)N=C(N)OC[C@@H]3F)c2)c(C)o1 [Example 18, 2,5-Dimethyl-furan-3-carboxylic acid [3-((4R,5R)-2-amino-5-fluoro-4-methyl-5,6-dihydro-4H-[1,3]oxazin-4-yl)-4-fluoro-phenyl]-amide] | 8 | 20 |
| C[C@]1(c2cc(NC(=O)c3cnc(OCC4CC4)cn3)ccc2F)N=C(N)OC[C@@H]1F [Example 16, 5-Cyclopropylmethoxy-pyrazine-2-carboxylic acid [3-((4R,5R)-2-amino-5-fluoro-4-methyl-5,6-dihydro-4H-[1,3]oxazin-4-yl)-4-fluoro-phenyl]-amide] | 5 | 590 |
| C[C@]1(c2cc(NC(=O)c3ccc(OCC(F)(F)F)cn3)ccc2F)N=C(N)OC[C@@H]1F [Example 17, 5-(2,2,2-Trifluoro-ethoxy)-pyridine-2-carboxylic acid [3-((4R,5R)-2-amino-5-fluoro-4-methyl-5,6-dihydro-4H-[1,3]oxazin-4-yl)-4-fluoro-phenyl]-amide] | 8 | 2300 |
| C[C@]1(c2cc(NC(=O)c3ccc(C#CC4CC4)cn3)ccc2F)N=C(N)OC[C@@H]1F [Example 14, 5-Cyclopropylethynyl-pyridine-2-carboxylic acid [3-((4R,5R)-2-amino-5-fluoro-4-methyl-5,6-dihydro-4H-[1,3]oxazin-4-yl)-4-fluoro-phenyl]-amide] | 4 | 9 |
| C[C@]1(c2cc(NC(=O)c3ccc(C(F)F)cn3)ccc2F)N=C(N)OC[C@@H]1F [Example 11, 5-Difluoromethyl-pyridine-2-carboxylic acid [3-((4R,5R)-2-amino-5-fluoro-4-methyl-5,6-dihydro-4H-[1,3]oxazin-4-yl)-4-fluoro-phenyl]-amide] | 3 | 1 |
| COc1ccc(C(=O)Nc2ccc(F)c([C@@]3(C)N=C(N)OC[C@@H]3F)c2)nc1 [Example 13, 5-Methoxy-pyridine-2-carboxylic acid [3-((4R,5R)-2-amino-5-fluoro-4-methyl-5,6-dihydro-4H-[1,3]oxazin-4-yl)-4-fluoro-phenyl]-amide] | 4 | 65 |
| C[C@]1(c2cc(NC(=O)c3ccc(Cl)cn3)ccc2F)N=C(N)OC[C@@H]1F [Example 1, 5-Chloro-pyridine-2-carboxylic acid [3-((4R,5R)-2-amino-5-fluoro-4-methyl-5,6-dihydro-4H-[1,3]oxazin-4-yl)-4-fluoro-phenyl]-amide] | 0.4 | 1 |
| C[C@]1(F)COC(N)=N[C@]1(C)c1cc(NC(=O)c2ccc(Cl)cn2)ccc1F [Example 41, 5-Chloro-pyridine-2-carboxylic acid [3-((4R,5R)-2-amino-5-fluoro-4,5-dimethyl-5,6-dihydro-4H-[1,3]oxazin-4-yl)-4-fluoro-phenyl]-amide] | 3 | 6 |
| C[C@]1(c2cc(NC(=O)c3ccc(OCF)cn3)ccc2F)N=C(N)OC[C@@H]1F [Example 5, 5-Fluoromethoxy-pyridine-2-carboxylic acid [3-((4R,5R)-2-amino-5-fluoro-4-methyl-5,6-dihydro-4H-[1,3]oxazin-4-yl)-4-fluoro-phenyl]] | 1 | 106 |
| C[C@]1(c2cc(NC(=O)c3ncc(C(F)(F)F)cc3Cl)ccc2F)N=C(N)OC[C@@H]1F [Example 9, 3-Chloro-5-trifluoromethyl-pyridine-2-carboxylic acid [3-((4R,5R)-2-amino-5-fluoro-4-methyl-5,6-dihydro-4H-[1,3]oxazin-4-yl)-4-fluoro-phenyl]-amide] | 2 | 124 |
| C[C@]1(F)COC(N)=N[C@]1(C)c1cc(NC(=O)c2ncccc2OCC(F)(F)F)ccc1F [Example 37, 3-(2,2,2-Trifluoro-ethoxy)-pyridine-2-carboxylic acid [3-((4R,5R)-2-amino-5-fluoro-4,5-dimethyl-5,6-dihydro-4H-[1,3]oxazin-4-yl)-4-fluoro-phenyl]-amide] | 22 | 226 |
| C[C@]1(c2cc(NC(=O)c3ncc(Cl)cc3F)ccc2F)N=C(N)OC[C@@H]1F [Example 8, 5-Chloro-3-fluoro-pyridine-2-carboxylic acid [3-((4R,5R)-2-amino-5-fluoro-4-methyl-5,6-dihydro-4H-[1,3]oxazin-4-yl)-4-fluoro-phenyl]-amide] | 2 | 6 |
| C[C@]1(c2cc(NC(=O)c3ncc(F)cc3F)ccc2F)N=C(N)OC[C@@H]1F [Example 3, 3,5-Difluoro-pyridine-2-carboxylic acid [3-((4R,5R)-2-amino-5-fluoro-4-methyl-5,6-dihydro-4H-[1,3]oxazin-4-yl)-4-fluoro-phenyl]-amide] | 1 | 7 |
| C[C@]1(c2cc(NC(=O)c3ccc(C#N)cn3)ccc2F)N=C(N)OC[C@@H]1OCC(F)(F)F [Example 47, 5-Cyano-pyridine-2-carboxylic acid {3-[(4R,5R)-2-amino-4-methyl-5-(2,2,2-trifluoro-ethoxy)-5,6-dihydro-4H-[1,3]oxazin-4-yl]-4-fluoro-phenyl}-amide] | 1 | 268 |
| C[C@]1(F)COC(N)=N[C@]1(C)c1cc(NC(=O)c2ccc(F)cn2)ccc1F [Example 42, 5-Fluoro-pyridine-2-carboxylic acid [3-((4R,5R)-2-amino-5-fluoro-4,5-dimethyl-5,6-dihydro-4H-[1,3]oxazin-4-yl)-4-fluoro-phenyl]-amide] | 11 | 74 |
| C[C@]1(c2cc(NC(=O)c3cnc(Cl)s3)ccc2F)N=C(N)OC[C@@H]1F [Example 26, 2-Chloro-thiazole-5-carboxylic acid [3-((4R,5R)-2-amino-5-fluoro-4-methyl-5,6-dihydro-4H-[1,3]oxazin-4-yl)-4-fluoro-phenyl]-amide] | 81 | 1400 |
| C[C@]1(c2cc(NC(=O)c3ccc(F)cn3)ccc2F)N=C(N)OC[C@@H]1OCC(F)(F)F [Example 46, 5-Fluoro-pyridine-2-carboxylic acid {3-[(4R,5R)-2-amino-4-methyl-5-(2,2,2-trifluoro-ethoxy)-5,6-dihydro-4H-[1,3]oxazin-4-yl]-4-fluoro-phenyl}-amide] | 2 | 65 |
